The values that follow come from paper PMC4686831, “Identification of an allosteric binding site for RORγt inhibition” (Nature Communications, 2015).

Assay [1] has as its target T1, RORγt-LBD (Homo sapiens, UniProt P51449).
T1 construct: leader […]; made in house; host or cells: BL21(DE3) E. coli
T1 sequence (P51449 259-518): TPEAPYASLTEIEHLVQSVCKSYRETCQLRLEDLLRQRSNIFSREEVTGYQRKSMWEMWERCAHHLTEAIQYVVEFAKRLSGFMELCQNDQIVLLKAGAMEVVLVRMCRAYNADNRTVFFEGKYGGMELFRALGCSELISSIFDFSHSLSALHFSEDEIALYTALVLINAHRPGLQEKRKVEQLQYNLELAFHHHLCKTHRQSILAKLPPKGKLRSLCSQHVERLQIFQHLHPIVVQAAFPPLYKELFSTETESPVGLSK
Put plainly: RORγt-LBD SRC-1 cofactor FRET assay. In kind it is biochemical.
Experimental: The potency of small-molecule RORγt ligands was then assessed by monitoring their effect on the association of a LXXLL-motif-containing SRC-1 peptide. Compound (10 mM dimethylsulphoxide (DMSO) stock) was serially diluted in threefold steps using an Agilent Bravo liquid handler. […] Compounds were allowed to incubate with receptor for 15 min and then 5 μl of peptide in detection buffer or detection buffer alone were added. Detection buffer (5 × ) consists of 50 mM Tris-HCL pH 7.0, 50 mM potassium chloride, 1 mM EDTA, 0.1% delipidated bovine serum albumin, 1 mM DTT and 20 nM streptavidin-APC (PerkinElmer). […] The plate was then incubated overnight at 4 °C. The following morning the plate was warmed to room temperature and read using an Envision plate reader (PerkinElmer). […] The per cent activity of each dilution was determined as the ratio of background corrected signal to the background corrected signal of wells receiving only DMSO. IC50 values were determined by fitting per cent activity data to a four-parameter logistic dose–response equation in GraphPad Prism (GraphPad Software).

The test system of assay [2] is IL-17 production in human PBMCs. Put plainly: PBMC Th17 polarization and IL-17 production assay. In kind it is cell-based. The note with it: 96 h, 4 days, mean±s.d., read-out: hPBMC IL17A IC50. How it is done: Test compounds were prepared as 10 mM stocks in DMSO and serially diluted 1:3 to provide an eight-concentration titration. […] Stimulatory cytokines were added to final concentrations of 25 ng ml^−1 IL-1B, 10 ng ml^−1 IL-23, 0.5 ng ml^−1 IL-2 and 10 ng ml^−1 IL-6 (all cytokines from R&D Systems). In addition, T-Activator CD3/28 Dynabeads (Invitrogen) were added to a concentration of 100,000 beads per ml. The stimulated cells were immediately dispensed into the assay plate containing serially diluted compound at a volume of 200 μl cells per well. Cell plates were then incubated at 37 °C and 5% CO2 for 4 days. Culture media (100 μl) was collected from each well and IL-17 expression was measured by enzyme-linked immunosorbent assay (R&D Systems) according to the manufacturer's instructions. Cell viability was assessed by the addition of 100 μl of CellTiter-Glo (Promega) to each well of the cell assay plate followed by luminescence detection on an Envision plate reader (PerkinElmer).

Assay [3] addresses T1, RORγt-LBD. Put plainly: RORγt-LBD AlexaFluor-647-labelled MRL-871 competitive binding assay. Conditions: 100 nM probe; mean±s.d.; read-out: MRL-871 AlexaFluor Probe Competition IC50. As to the method: The plate was then incubated for 15 min at room temperature. […] TR-FRET intensity in the presence of RORγt was corrected for background and the KD determined using the One-site specific binding equation in Graph Pad Prism. […] IC50 values were determined by fitting per cent activity data to a four-parameter logistic dose–response equation in GraphPad Prism.

A further assay deals with T2, RORγt-GAL4 (Homo sapiens, UniProt P51449).
T2 construct: expressed in transfected cells; host or cells: HEK293T
T2 sequence (P51449 97-518): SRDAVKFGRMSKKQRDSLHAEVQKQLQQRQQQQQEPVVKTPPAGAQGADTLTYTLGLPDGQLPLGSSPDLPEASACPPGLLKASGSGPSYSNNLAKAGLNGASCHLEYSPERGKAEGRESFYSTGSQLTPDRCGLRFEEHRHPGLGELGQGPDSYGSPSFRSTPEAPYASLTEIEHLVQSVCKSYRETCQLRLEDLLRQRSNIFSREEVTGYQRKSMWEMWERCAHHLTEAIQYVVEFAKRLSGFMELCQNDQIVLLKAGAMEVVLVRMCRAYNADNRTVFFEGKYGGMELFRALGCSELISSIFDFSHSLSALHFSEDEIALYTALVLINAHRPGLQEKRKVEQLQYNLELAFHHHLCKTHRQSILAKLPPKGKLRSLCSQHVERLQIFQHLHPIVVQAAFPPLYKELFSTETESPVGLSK
Kind of assay: Chimeric RORγt-GAL4 luciferase reporter assay in HEK293T cells. Conditions: mean±s.d. In kind it is cell-based. (In general: Reporter assays use an easily measured gene product as a stand-in for the process of interest.)

SMILES strings stand for the structures.

Experimental for RORγt-GAL4: This vector, along with the GAL4 UAS-luciferase reporter vector pGL4.31 (Promega), was used to transfect HEK293T cells. […] Following transfection, cells were transferred to one T75 flask and incubated overnight at 37 °C and 5% CO2. […] Cells were collected and resuspended at 0.8 × 10^6 cells per ml in DMEM high-glucose media with 10% FBS. To each well of the plate was added 25 μl of cell suspension and the cells incubated overnight at 37 °C and 5% CO2. After 20–22 h, the plates were brought to room temperature and 25 μl of Steady-Glo luciferase reagent (Promega) was added to each well. The luminescent signal was measured on an Envision plate reader.

Consider `CC1(C(=O)O)CC=C(c2nn(C(=O)c3c(Cl)cccc3C(F)(F)F)c3cccc(F)c23)CC1` (centres unmarked) [MRL-673], for which, on RORγt-LBD [1] (in both the biochemical and cellular assays), the “weaker potency relative to MRL-367” value is reported as 10 fold. For the same compound, the 50% inhibitory concentration (IC50) was 21.8 ± 6.7 nM on RORγt-LBD [1] (mean±s.d., read-out: SRC1 Cofactor FRET IC50); 142 ± 64 nM in assay [2]; 26.4 ± 13 nM at RORγt-LBD [3]; 279 ± 137 nM at RORγt-GAL4.

One may read the IC50 as the concentration at which inhibition is half-maximal.
